Data reported in publication PMC9181126, “Design, Synthesis, Molecular Docking Analysis and Biological Evaluations of 4-[(Quinolin-4-yl)amino]benzamide Derivatives as Novel Anti-Influenza Virus Agents” (International Journal of Molecular Sciences, 2022).

Columns and labels:
[1] = system: influenza virus A/WSN/33 (H1N1); assay: microbe, parasite or virus in culture; type: cell-based; details: MDCK, 72 h; for inhibition at 12.5 µM / inhibition at 25 µM / inhibition at 50 µM / inhibition at 100 µM: H1N1|WSN, read-out: Antiviral activity in CPE assay; for EC50: read-out: Cytopathic Effect Assay (A/WSN/33, H1N1) EC50
[2] = system: MDCK cells; assay: in vitro; type: cell-based, canine; details: dog, 72 h
Procedure: (§1) The 3-(4,5-dimethylthiazol-2-yl)-2,5-diphenyltetrazolium bromide (MTT) method was performed to assess the cytotoxicity of target compounds in MDCK cells and HEK293T cells. Firstly, MDCK cells or HEK293T cells were seeded into the 96-well plate. Then, the media containing test compounds replaced the growth media after 48 h. Incubate MDCK cells or HEK293T cells with test compounds for 72 h at 37 °C in a humidified 5% CO2 incubator. Later, MTT solution (5 mg/mL in PBS) was added into each well and plates were incubated for 4 h at 37 °C. Then, add a solubilization solution to lyse cells. Finally, absorbance was read at 620 nm using an ELISA plate reader (Tecan Sunrise) after 3 h of further incubation at 37 °C. We set the values obtained from the wells treated with only DMSO as 100% of viable cells.

[3] = in vitro; type: cell-based, canine; details: dog
Procedure: as §1

[4] = system: influenza virus A/WSN/33 (H1N1); assay: Plaque inhibition assay in MDCK cells; type: cell-based; details: for inhibition at 100 µM: MDCK, concentration 100 µM, read-out: Plaque Inhibition Assay (A/WSN/33, H1N1) Inhibition Rate
[5] = system: HEK293T cells; assay: in vitro; type: cell-based; details: human, 72 h
Procedure: as §1

[6] = in vitro; type: cell-based; details: human
Procedure: as §1

[7] = system: PA-PB1 endonuclease; assay: Experimental PA-PB1 inhibitory activity of literature inhibitors (training and test set); type: biochemical, influenza virus; details: class of the experimental IC50
[8] = system: PA-PB1 endonuclease; set-up: method as in supplement 1-7; details: training and test set compounds collected from literature; ref supplement 1-7; read-out: IC50 value Experimental (PA-PB1 endonuclease inhibitors); cited from earlier work
[9] = target: ribonucleoprotein (RNP) of influenza virus (Influenza A virus, UniProt P15659); assay: cell-based; details: HEK-293T; concentration 100 µM; read-out: RNP Reconstitution Assay Inhibition Rate

SMILES	Activity scale Experimental [7]	IC50 [8] [µM]	other results
COc1ccccc1OCCNC(=O)c1ccc(Nc2ccnc3ccc(Br)cc23)cc1 [Compound G24, N-[2-(2-Methoxyphenoxy)ethyl]-4-[(6-bromoquinolin-4-yl)amino]benzamide]	–	–	inhibition at 12.5 µM [1]: 21 ± 2.86%; inhibition at 25 µM [1]: 19.2 ± 0.69%; inhibition at 50 µM [1]: 19.2 ± 0.42%; inhibition at 100 µM [1]: 18.4 ± 1.27%; EC50 [1]: > 100 µM; MDCK cells survival rate ([2]; 12.5 µmol·L−1): 97.97±11.82%; MDCK cells survival rate ([2]; 25 µmol·L−1): 71.98±13.89%; MDCK cells survival rate ([2]; 50 µmol·L−1): 87.44±3.70%; MDCK cells survival rate ([2]; 100 µmol·L−1): 105.38±8.08%; CC50 at 72 h [3]: > 100 µM; inhibition at 100 µM [4]: < 10%; melting point: 240.5 to 241.3 °C; HEK293T cells survival rate ([5]; 3.125 µmol·L−1): 113.31±4.70%; HEK293T cells survival rate ([5]; 6.25 µmol·L−1): 96.70±5.40%; HEK293T cells survival rate ([5]; 12.5 µmol·L−1): 91.88±3.61%; HEK293T cells survival rate ([5]; 25 µmol·L−1): 91.06±10.23%; HEK293T cells survival rate ([5]; 50 µmol·L−1): 69.53±3.05%; HEK293T cells survival rate ([5]; 100 µmol·L−1): 72.95±4.52%; CC50 at 72 h [6]: > 100 µM
COc1ccccc1OCCNC(=O)c1ccc(Nc2ccnc3ccc(Cl)cc23)cc1 [Compound G25, N-[2-(2-Methoxyphenoxy)ethyl]-4-[(6-chloroquinolin-4-yl)amino]benzamide]	–	–	inhibition at 12.5 µM [1]: 26.1 ± 0.67%; inhibition at 25 µM [1]: 25.7 ± 2.29%; inhibition at 50 µM [1]: 22.5 ± 1.29%; inhibition at 100 µM [1]: 22.3 ± 0.4%; EC50 [1]: > 100 µM; MDCK cells survival rate ([2]; 12.5 µmol·L−1): 92.58±5.23%; MDCK cells survival rate ([2]; 25 µmol·L−1): 85.96±5.73%; MDCK cells survival rate ([2]; 50 µmol·L−1): 86.83±3.19%; MDCK cells survival rate ([2]; 100 µmol·L−1): 79.32±11.90%; CC50 at 72 h [3]: > 100 µM; inhibition at 100 µM [4]: 0%; melting point: 247.7 to 248.4 °C; HEK293T cells survival rate ([5]; 3.125 µmol·L−1): 104.71±1.87%; HEK293T cells survival rate ([5]; 6.25 µmol·L−1): 103.50±6.33%; HEK293T cells survival rate ([5]; 12.5 µmol·L−1): 99.13±1.95%; HEK293T cells survival rate ([5]; 25 µmol·L−1): 65.73±7.64%; HEK293T cells survival rate ([5]; 50 µmol·L−1): 101.61±11.65%; HEK293T cells survival rate ([5]; 100 µmol·L−1): 110.35±11.54%; CC50 at 72 h [6]: > 100 µM
Cc1cc(-c2ccccc2)n2nc(C(=O)Nc3ccccc3C(N)=O)nc2n1 [Compound H05]	+++ (+++, IC50 10 to 100 μM (active))	11	–
Cc1cc(-c2ccccc2)n2nc(C(=O)Nc3sc4c(c3C(=O)Nc3ccccn3)CCCCC4)nc2n1 [Compound H06]	+++ (+++, IC50 10 to 100 μM (active))	23	–
Cc1cc(-c2ccccc2)n2nc(C(=O)Nc3sc4c(c3C(=O)O)CCCCC4)nc2n1 [Compound H08]	+++ (+++, IC50 10 to 100 μM (active))	19	–
Cc1cc(-c2ccccc2)n2nc(C(=O)Nc3nc4ccccc4s3)nc2n1 [Compound H09]	+++ (+++, IC50 10 to 100 μM (active))	21	–
COc1ccccc1C(=O)Nc1sc2c(c1C(=O)Nc1ccccn1)CCCCC2 [Compound H11]	+++ (+++, IC50 10 to 100 μM (active))	22	–
O=C(Nc1sc2c(c1C(=O)Nc1ccc(Cl)cc1)CCCCC2)c1ccccc1O [Compound H12]	+++ (+++, IC50 10 to 100 μM (active))	18	–
O=C(Nc1sc2c(c1C(=O)Nc1ccccn1)CCCCC2)c1ccc(O)cc1 [Compound H13]	+++ (+++, IC50 10 to 100 μM (active))	26	–
Cc1cc(-c2ccccc2)nc2c(C(=O)Nc3sc4c(c3C(N)=O)CCC4)cnn12 [Compound H15]	+++ (+++, IC50 10 to 100 μM (active))	44.8	–
NC(=O)c1c(NC(=O)c2cnn3c(C(F)F)cc(-c4ccccc4)nc23)sc2c1CCC2 [Compound H16]	+++ (+++, IC50 10 to 100 μM (active))	25.4	–
CCCCOc1ccc(C(=O)Nc2nc3n(n2)C(c2ccccc2)C=C(C)N3)cc1 (centres unmarked) [Compound H18]	+++ (+++, IC50 10 to 100 μM (active))	37	–
Cc1cc(-c2ccccc2)nc2nc(NC(=O)c3ccccc3)nn12 [Compound H20]	+++ (+++, IC50 10 to 100 μM (active))	26	–
CCCOc1ccc(C(=O)Nc2nc3n(n2)C(c2ccccc2)C=C(C)N3)cc1 (centres unmarked) [Compound H21]	+++ (+++, IC50 10 to 100 μM (active))	40	–
CC1=CC(c2ccccc2)n2nc(NC(=O)c3ccc(OC(C)C)cc3)nc2N1 (centres unmarked) [Compound H22]	+++ (+++, IC50 10 to 100 μM (active))	75	–
CCOc1ccc(C(=O)Nc2nc3n(n2)C(c2ccccc2)C=C(C)N3)cc1 (centres unmarked) [Compound H23]	++ (++, IC50 100 to 150 μM (moderately active))	139	–
CC1=CC(c2ccccc2)n2nc(NC(=O)c3ccccc3F)nc2N1 (centres unmarked) [Compound H25]	+ (+, IC50 >150 μM (inactive))	185	–
CC1=CC(c2ccccc2)n2nc(NC(=O)c3cccc(F)c3)nc2N1 (centres unmarked) [Compound H26]	+ (+, IC50 >150 μM (inactive))	156	–
CC1=CC(c2ccccc2)n2nc(NC(=O)c3ccc(F)cc3)nc2N1 (centres unmarked) [Compound H27]	++ (++, IC50 100 to 150 μM (moderately active))	138	–
CC(c1ccccc1)n1nnnc1C(c1ccsc1)N1CCC(n2c(=O)[nH]c3ccccc32)CC1 (centres unmarked) [Compound H28]	++++ (++++, IC50 ≤ 10 μM (most active))	7.6	–
CCOC(=O)c1ccc(NC(=O)CSc2nc(-c3ccccc3)cc(-c3ccc(OCc4ccccc4)c(OCC)c3)c2C#N)cc1 [Compound H30]	+++ (+++, IC50 10 to 100 μM (active))	30	–
NC(=O)c1c(NC(=O)c2cnn3c(C(F)F)cc(-c4ccccc4)nc23)sc2c1CCC2 [Compound H32]	+++ (+++, IC50 10 to 100 μM (active))	25.4	–
O=C(Nc1sc2c(c1C(=O)Nc1nccs1)CCCCC2)c1ccccc1O [Compound H33]	+++ (+++, IC50 10 to 100 μM (active))	69	–
COc1ccccc1C(=O)Nc1sc2c(c1C(=O)Nc1ccc(Cl)cc1)CCCCC2 [Compound H34]	+++ (+++, IC50 10 to 100 μM (active))	78	–
Cc1ccc(-c2cc(-c3ccccc3)nc(SCC(=O)Nc3cccc(Cl)c3)c2C#N)cc1 [Compound H35]	+ (+, IC50 >150 μM (inactive))	180	–
Cc1ccc(-c2cc(-c3ccccc3)nc(SC(C)C(=O)Nc3cccc(Cl)c3)c2C#N)cc1 (centres unmarked) [Compound H36]	++ (++, IC50 100 to 150 μM (moderately active))	125	–
Cc1ccc(-c2cc(-c3ccccc3)nc(SC(C)C(=O)Nc3ccc(C)c(C)c3)c2C#N)cc1 (centres unmarked) [Compound H38]	+ (+, IC50 >150 μM (inactive))	180	–
Cc1onc(-c2ccccc2)c1C(=O)N1CCN(c2ccc([N+](=O)[O-])cc2Cl)CC1 [nucleozin, reference compound]	–	–	EC50 [1]: 0.21 ± 0.15 µM; inhibition at 100 µM [9]: 92.9%; IC50 ([4]; MDCK cells): 0.15 ± 0.11 µM; inhibition at 100 µM [4]: 99.5%
